Assay results reported in ChEMBL document CHEMBL2074250, “Digoxin up-regulates MDR1 in human colon carcinoma Caco-2 cells” (Biochem Biophys Res Commun, 2002).

Target: ATP-dependent translocase ABCB1 (Homo sapiens, UniProt P08183)
Assay: TP_TRANSPORTER: RT-PCR in Caco-2 cells
Format: functional, cell-based

Chain of ATP-dependent translocase ABCB1 (P08183 whole entry): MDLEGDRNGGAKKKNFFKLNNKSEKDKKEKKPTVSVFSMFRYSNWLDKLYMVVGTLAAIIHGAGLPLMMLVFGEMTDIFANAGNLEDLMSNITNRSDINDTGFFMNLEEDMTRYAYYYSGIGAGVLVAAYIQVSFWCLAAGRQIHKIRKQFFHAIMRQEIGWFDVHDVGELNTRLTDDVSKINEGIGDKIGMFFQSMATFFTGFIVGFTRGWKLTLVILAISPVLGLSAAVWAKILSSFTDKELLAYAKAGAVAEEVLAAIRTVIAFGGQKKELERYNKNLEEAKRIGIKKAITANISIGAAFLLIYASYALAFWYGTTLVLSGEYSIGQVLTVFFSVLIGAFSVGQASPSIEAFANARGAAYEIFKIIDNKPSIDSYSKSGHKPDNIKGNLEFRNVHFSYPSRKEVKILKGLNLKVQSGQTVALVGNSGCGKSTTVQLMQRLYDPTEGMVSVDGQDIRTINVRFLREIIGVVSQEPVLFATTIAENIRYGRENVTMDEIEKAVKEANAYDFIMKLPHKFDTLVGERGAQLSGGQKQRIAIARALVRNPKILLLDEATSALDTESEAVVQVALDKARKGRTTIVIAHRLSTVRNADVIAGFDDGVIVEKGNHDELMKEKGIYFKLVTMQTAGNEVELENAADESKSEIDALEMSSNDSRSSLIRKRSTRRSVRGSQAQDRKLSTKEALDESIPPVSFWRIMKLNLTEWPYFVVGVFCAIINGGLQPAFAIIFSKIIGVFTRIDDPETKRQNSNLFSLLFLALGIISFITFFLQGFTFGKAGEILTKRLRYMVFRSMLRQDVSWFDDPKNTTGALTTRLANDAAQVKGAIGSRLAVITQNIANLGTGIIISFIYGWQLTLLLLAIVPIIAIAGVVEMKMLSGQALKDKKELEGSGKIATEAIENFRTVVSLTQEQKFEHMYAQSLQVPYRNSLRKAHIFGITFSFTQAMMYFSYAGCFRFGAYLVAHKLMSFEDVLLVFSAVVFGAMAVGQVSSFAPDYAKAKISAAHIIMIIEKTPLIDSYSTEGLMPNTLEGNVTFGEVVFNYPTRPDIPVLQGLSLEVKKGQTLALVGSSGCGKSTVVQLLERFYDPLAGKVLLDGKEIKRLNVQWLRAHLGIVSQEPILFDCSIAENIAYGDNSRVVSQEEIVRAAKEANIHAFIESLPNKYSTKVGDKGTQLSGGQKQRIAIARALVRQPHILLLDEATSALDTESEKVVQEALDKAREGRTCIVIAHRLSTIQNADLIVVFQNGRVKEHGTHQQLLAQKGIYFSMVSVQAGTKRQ

## C[C@H]1O[C@@H](O[C@H]2[C@@H](O)C[C@H](O[C@H]3[C@@H](O)C[C@H](O[C@H]4CC[C@@]5(C)[C@H](CC[C@@H]6[C@@H]5C[C@@H](O)[C@]5(C)[C@@H](C7=CC(=O)OC7)CC[C@]65O)C4)O[C@@H]3C)O[C@@H]2C)C[C@H](O)[C@@H]1O [DIGOXIN]
  Activity: inducer [+]
